Where two headings read alike, the source gives them in different places.
What was measured:
FAAH [1] = biological target: T1, FAAH (Rattus norvegicus, UniProt P97612); settings: shown for comparative purposes, cited from earlier work; for IC50: rat brain, read-out: IC50 for inhibition of rat brain AEA hydrolysis
T1 construct: rat or mouse brain homogenates as the enzyme source; from tissue; host or cells: rat brain (minus cerebellum), Wistar or Sprague-Dawley, washed membrane homogenate
T1 sequence (P97612 1-579): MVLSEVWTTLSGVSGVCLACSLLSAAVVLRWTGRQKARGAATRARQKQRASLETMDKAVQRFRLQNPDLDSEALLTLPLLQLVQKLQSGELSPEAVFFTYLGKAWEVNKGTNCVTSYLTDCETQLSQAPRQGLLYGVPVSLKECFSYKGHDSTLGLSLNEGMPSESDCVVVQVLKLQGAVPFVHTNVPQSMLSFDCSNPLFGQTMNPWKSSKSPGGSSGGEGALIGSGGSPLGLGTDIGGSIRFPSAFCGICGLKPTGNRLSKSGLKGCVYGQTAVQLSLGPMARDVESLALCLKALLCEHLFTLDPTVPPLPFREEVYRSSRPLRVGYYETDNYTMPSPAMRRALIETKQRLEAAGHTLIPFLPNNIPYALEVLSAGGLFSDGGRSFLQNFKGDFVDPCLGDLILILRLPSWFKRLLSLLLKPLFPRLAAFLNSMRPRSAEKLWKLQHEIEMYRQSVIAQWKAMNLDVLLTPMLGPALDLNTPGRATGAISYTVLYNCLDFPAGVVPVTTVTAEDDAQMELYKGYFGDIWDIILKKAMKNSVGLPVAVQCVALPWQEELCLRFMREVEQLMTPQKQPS

FAAH [2] = settings: cited from earlier work
FAAH [3] = biological target: T1, FAAH; experiment: FAAH assay: [3H]AEA hydrolysis by rat brain homogenates; assay type: biochemical; settings: for IC50: 0.5 µM [3H]AEA, rat brain homogenates; for increase in FAAH inhibitory activity versus Flu-AM1: IC50 compared with Flu-AM1; for FAAH potency versus flurbiprofen: IC50 compared with flurbiprofen
iNOS = iNOS expression in the spinal cord of CCI-mice; assay type: in vivo; settings: 10 mg/kg ip, 1 h before
COX-2 = COX-2 expression in the spinal cord of CCI-mice; assay type: in vivo; settings: 10 mg/kg ip, 1 h before
human recombinant COX-2 = test system: T2, human recombinant COX-2; experiment: COX-2 inhibition, oxygen electrode assay; assay type: biochemical; settings: 10 µM compound, 10 µM 2-AG
T2 construct: purchased Cayman Chemical Co. 60122
Description: The assay was performed according to Meade et al.[58] with minor modifications. An oxygen electrode chamber with integral stirring (Oxygraph System, Hansatech Instruments, […].) was calibrated daily to ambient temperature and air pressure. The assay buffer contained 100 mM Tris-HCl buffer pH 7.4, 1 μM haematin, 2 mM phenol, 5 mM EDTA, 10 μM substrate (arachidonic acid or 2-AG) (final assay volume was 2 ml). After addition of Flu-AM4 dissolved in ethanol (final assay concentration 1%), a baseline was established for 5 min before initiation of reaction by addition of 200 units of either ovine COX-1 or human recombinant COX-2. The change in oxygen consumption as a measurement of enzyme activity was monitored for approximately 5 min.

CD1 male mice [4] = experiment: CCI neuropathic pain model, mechanical hyperalgesia (Randall-Selitto test); assay type: in vivo; settings: 1 h before test, day 7 and 14
Description: (§1) The behavioural experiments were performed on CD1 male mice (25–30 g Charles Rivers-Italy). They were housed in the animal care facility of the Department Experimental of Pharmacology, University of Naples. The animals were acclimated to their environment for 1 week and had ad libitum access to standard rodent chow pellets VRF1 (purchased from Special Diet Service-SDS). All behavioural tests were performed between 9:00 AM and 13:00 PM, and the animals were only used once. Procedures involving animals and their care were conducted in conformity with international and national law and policies (EU Directive 2010/63/EU for animal experiments). The procedures reported here were approved by the Institutional Committee on the Ethics of Animal Experiments (CSV) of the University of Naples “Federico II” and by the “Ministero della Salute”, protocol no. 2014–0084607. At the end of all experiments for all pain models, the animals were euthanized by CO2 overdose.
(§2) During this study, Flu-AM4 was administered systemically (intraperitoneally) and locally (intraplantar 100 microg/paw). For systemic administration, the compound was dissolved in PEG400 20% v/v, TWEEN 80 5% (v/v) and sterile saline and used at different doses (1–3–10 mg/kg). Vehicle group was only treated with PEG, TWEEN and sterile saline. For intraplantar administration Flu-AM4 was dissolved in PEG400 10% v/v, TWEEN 80 5% (v/v) and formalin 5% in sterile saline.
Paw withdrawal threshold (PWT) to mechanical pressure was measured with a Randall-Selitto Analgesy-Meter for mice (Ugo Basile, Italy). PWT was measured on the ispsilateral paw at 1, 2, 4, 6 and 48 h post carrageenan injection. Each paw was tested twice per session. Cut-off force was set at 100 g.
(§3) Neuropathic pain was induced by ligation of the sciatic nerve as described previously. […] At day 7 and 14 Mechanical Allodynia (von Frey test) and Mechanical hyperalgesia (Randall-Selitto test) were assessed. […]

FAAH [5] = biological target: T3, FAAH (Mus musculus, UniProt O08914); experiment: FAAH assay: [3H]AEA hydrolysis by mouse brain homogenates; assay type: biochemical; settings: 0.5 µM [3H]AEA
T3 construct: rat or mouse brain homogenates as the enzyme source; from tissue; host or cells: mouse brain (minus cerebellum), male B6CBAF1/J, washed membrane homogenate
T3 sequence (O08914 1-579): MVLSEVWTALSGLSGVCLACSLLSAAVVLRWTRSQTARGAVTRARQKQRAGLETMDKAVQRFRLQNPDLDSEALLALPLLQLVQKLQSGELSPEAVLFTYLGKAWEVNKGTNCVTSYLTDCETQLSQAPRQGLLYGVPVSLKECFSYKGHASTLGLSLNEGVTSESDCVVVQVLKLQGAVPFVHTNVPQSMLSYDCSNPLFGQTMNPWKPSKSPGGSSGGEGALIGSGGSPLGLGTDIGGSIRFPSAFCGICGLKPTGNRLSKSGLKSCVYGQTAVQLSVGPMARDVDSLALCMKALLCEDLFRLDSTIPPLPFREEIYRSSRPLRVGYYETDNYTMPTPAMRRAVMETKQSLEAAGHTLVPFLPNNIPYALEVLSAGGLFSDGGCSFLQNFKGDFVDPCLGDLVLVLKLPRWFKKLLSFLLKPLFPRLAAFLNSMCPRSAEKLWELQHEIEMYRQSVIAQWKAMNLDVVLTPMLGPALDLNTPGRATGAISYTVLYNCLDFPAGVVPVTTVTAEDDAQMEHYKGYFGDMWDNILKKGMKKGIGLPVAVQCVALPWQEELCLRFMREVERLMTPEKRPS

ovine COX-1 = test system: T4, ovine COX-1; experiment: COX-1 inhibition, oxygen electrode assay; assay type: biochemical; settings: 10 µM compound, 10 µM arachidonic acid
T4 construct: purchased Cayman Chemical Co. 60100
Description: The assay was performed according to Meade et al.[58] with minor modifications. An oxygen electrode chamber with integral stirring (Oxygraph System, Hansatech Instruments, King’s Lynn, U.K.) was calibrated daily to ambient temperature and air pressure. The assay buffer contained 100 mM Tris-HCl buffer pH 7.4, 1 µM haematin, 2 mM phenol, 5 mM EDTA, 10 µM substrate (arachidonic acid or 2-AG) (final assay volume was 2 ml). After addition of Flu-AM4 dissolved in ethanol (final assay concentration 1%), a baseline was established for 5 min before initiation of reaction by addition of 200 units of either ovine COX-1 or human recombinant COX-2. The change in oxygen consumption as a measurement of enzyme activity was monitored for approximately 5 min.

CD1 male mice [6] = experiment: Carrageenan-induced mechanical hyperalgesia (Randall-Selitto); assay type: in vivo; settings: 10 mg/kg ip, 5 min after carrageenan
Description: as §1
(§4) During this study, Flu-AM4 was administered systemically (intraperitoneally) and locally (intraplantar 100 microg/paw). […]
Paw withdrawal threshold (PWT) to mechanical pressure was measured with a Randall-Selitto Analgesy-Meter for mice (Ugo Basile, Italy). PWT was measured on the ispsilateral paw at 1, 2, 4, 6 and 48 h post carrageenan injection. […]

CD1 male mice [7] = experiment: CCI neuropathic pain model, mechanical allodynia (von Frey test); assay type: in vivo; settings: 1 h before test, day 7 and 14
Description: as §1, §2, §3
To assess for changes in sensation or in the development of mechanical allodynia, sensitivity to tactile stimulation was measured using the Dynamic Plantar Aesthesiometer (DPA, Ugo Basile, Italy). […]

CD1 male mice [8] = experiment: Carrageenan-induced paw oedema; assay type: in vivo; settings: 10 mg/kg ip, 5 min after carrageenan; p < 0.05
Description: The behavioural experiments were performed on CD1 male mice (25–30 g Charles Rivers-Italy). They were housed in the animal care facility of the Department Experimental of Pharmacology, University of Naples. The animals were acclimated to their environment for 1 week and had ad libitum access to standard rodent chow pellets VRF1 (purchased from Special Diet Service-SDS). All behavioural tests were performed between 9:00 AM and 13:00 PM, and the animals were only used once. Procedures involving animals and their care were conducted in conformity with international and national law and policies (EU Directive 2010/63/EU for animal experiments). The procedures reported here were approved by the Institutional Committee on the Ethics of Animal Experiments (CSV) of the University of Naples “Federico II” and by the “Ministero della Salute”, protocol no. 2014–0084607. […]
Paw edoema was induced by a subplantar injection of 0.1 ml of sterile saline containing 1% λ-carrageenan (Sigma Aldrich) into the right hind paw. Paw volumes were measured by a plethysmometer (Ugo Basile, Italy) at different times after the paw injection. The increase in paw volume was evaluated as the difference between the paw volume measured (Vm) at each time point (1, 2, 4, 6 and 48 h post carrageenan) and the basal paw volume (Vb) measured immediately before carrageenan injection (Δ volume = Vm – Vb).

NFκB-p65 = experiment: NF-κB-p65 expression in the spinal cord of CCI-mice; assay type: in vivo; settings: 10 mg/kg ip, 1 h before
CD1 male mice [9] = experiment: Formalin-evoked hind-paw licking; assay type: in vivo; settings: phase I and II
Description: as §1, §4
Mice received intraplantar injections of formalin in saline (10%,vol/vol; 10 µl/paw). Paw licking was monitored by an observer blind to the experimental treatment for periods of 0–15 min (early phase) and 15–60 min (late phase) immediately after formalin administration. […]

[10] = derived from pI50, read-out: IC50 for inhibition of rat brain AEA hydrolysis
[11] = means ± s.e.m., n = 3–4, read-out: pI50 (-logIC50) for inhibition of rat brain AEA hydrolysis (converted)

Structure (SMILES): Cc1cccnc1NC(=O)C(C)c1ccc(-c2ccccc2)c(F)c1 (stereo not shown) [Flu-AM1]
- IC50 (FAAH [1]): 440 nM
- pI50 (-logIC50) for inhibition of rat brain AEA hydrolysis (FAAH [1]): 6.36 ± 0.02
- potency against FAAH versus flurbiprofen (FAAH [2]): about 60 fold

Structure (SMILES): CC(C(=O)Nc1ncccc1C(F)(F)F)c1ccc(-c2ccccc2)c(F)c1 (stereo not shown) [Flu-AM3, 2–(2-Fluoro-(1,1'-biphenyl)-4-yl)-N-(3-(trifluoromethyl)pyridin-2-yl)propanamide]
- IC50 (FAAH [3]; [10]): 110 nM
- IC50 (FAAH [3]; [11]): 110 nM
- increase in FAAH inhibitory activity versus Flu-AM1 (FAAH [3]; rat brain): about 4 fold

Structure (SMILES): CC(C(=O)Nc1ncccc1Br)c1ccc(-c2ccccc2)c(F)c1 (stereo not shown) [Flu-AM4, N-(3-Bromopyridin-2-yl)-2-(2-fluoro-(1,1'-biphenyl)-4-yl)propanamide]
- iNOS expression in the spinal cord (iNOS): significantly reduced this expression
- COX-2 expression in the spinal cord (COX-2): significantly reduced this expression
- inhibition of cyclooxygenation of 2-AG by COX-2 (human recombinant COX-2): completely inhibited
- CCI-induced mechanical hyperalgesia (Randall-Selitto) (CD1 male mice [4]; 1 mg/kg ip): did not show any effect
- CCI-induced mechanical hyperalgesia (Randall-Selitto) (CD1 male mice [4]; 3 mg/kg ip): showed efficacy only at the 14-day time point in both tests
- CCI-induced mechanical hyperalgesia (Randall-Selitto) (CD1 male mice [4]; 10 mg/kg ip): increased paw withdrawal latency in both test and in all experimental time
- IC50 (FAAH [5]): 430 nM
- inhibition of cyclooxygenation of AA by COX-1 (ovine COX-1): only partially inhibiting
- carrageenan-induced paw hyperalgesia (CD1 male mice [6]): reduce hyperalgesia seen 2 h after carrageenan
- CCI-induced mechanical allodynia (Von Frey) (CD1 male mice [7]; 1 mg/kg ip): did not show any effect
- CCI-induced mechanical allodynia (Von Frey) (CD1 male mice [7]; 3 mg/kg ip): showed efficacy only at the 14-day time point in both tests
- CCI-induced mechanical allodynia (Von Frey) (CD1 male mice [7]; 10 mg/kg ip): increased paw withdrawal latency in both test and in all experimental time
- IC50 (FAAH [3]; [10]): 21 nM
- IC50 (FAAH [3]; [11]): 21.4 nM
- Ki (FAAH [3]; rat brain [3H]AEA hydrolysis, competitive model): 13 nM
- increase in FAAH inhibitory activity versus Flu-AM1 (FAAH [3]; rat brain): approximately 20 fold
- FAAH potency versus flurbiprofen (FAAH [3]; rat brain): more than three orders of magnitude greater than flurbiprofen
- mode of FAAH inhibition (kinetics) (FAAH [3]; rat brain, best fit by Akaike's criteria): competitive inhibition
- reversibility of FAAH inhibition (FAAH [3]; rat brain, preincubation and 20-fold dilution experiments): reversible inhibitor
- potency towards rat brain FAAH versus mouse brain FAAH (FAAH [3]; rat vs mouse brain): an order of magnitude more potent towards rat brain FAAH than mouse brain FAAH
- carrageenan-induced paw oedema (CD1 male mice [8]): reduced paw oedema at 2 and 4 h
- NFκB-p65 expression in the spinal cord (NFκB-p65): significantly reduced this expression
- formalin-induced paw licking, local application (CD1 male mice [9]; 100 µg intraplantar, co-administered with formalin 5%, p < 0.001): reduced the paw licking time in both phases
- formalin-induced paw licking, systemic administration (CD1 male mice [9]; 10 mg/kg ip, 1 h before formalin, p < 0.001 vs vehicle): reduce the behavioural responses in both phases

Structure (SMILES): CC(C(=O)Nc1ncccc1Cl)c1ccc(-c2ccccc2)c(F)c1 (stereo not shown) [Flu-AM6, N-(3-Chloropyridin-2-yl)-2-(2-fluoro-(1,1'-biphenyl)-4-yl)propanamide]
- IC50 (FAAH [3]; [10]): 19 nM
- IC50 (FAAH [3]; [11]): 19.1 nM
- increase in FAAH inhibitory activity versus Flu-AM1 (FAAH [3]; rat brain): approximately 20 fold
- FAAH potency versus flurbiprofen (FAAH [3]; rat brain): more than three orders of magnitude greater than flurbiprofen

Structure (SMILES): CC(C(=O)O)c1ccc(-c2ccccc2)c(F)c1 (stereo not shown) [Flurbiprofen]
- IC50 (FAAH [1]): 29000 nM
- pI50 (-logIC50) for inhibition of rat brain AEA hydrolysis (FAAH [1]): 4.53 ± 0.02

Structure (SMILES): Cc1cccnc1NC(=O)C(C)c1ccc(CC(C)C)cc1 (stereo not shown) [Ibu-AM5]
- potency against FAAH versus ibuprofen (FAAH [2]): 2-3 orders of magnitude
